The text below walks through data of publication PMC4941645, “Oxidative Stress Induced by Pt(IV) Pro-drugs Based on the Cisplatin Scaffold and Indole Carboxylic Acids in Axial Position” (Scientific Reports, 2016).

The test system of data set [1] is A431 cervical carcinoma cells. Nature of the data set: MTT cytotoxicity test, A431. The following applies: ± S.D. In kind it is cell-based, human. The procedure: (§1) The cytotoxic activity of the complexes and of the uncoordinated ligands was evaluated by the MTT test on a panel of human tumor cell lines containing examples of pancreatic (BxPC3), colorectal (HCT-15), breast (MCF-7), cervical (A431), and lung (A549) cancers as well as of melanoma (A375). For comparison purposes, the cytotoxicity of cisplatin was evaluated under the same experimental conditions.
(§2) Cisplatin was dissolved in 0.9% NaCl solution.
(§3) Human breast (MCF-7), colon (HCT-15), lung (A549) and pancreatic (BxPC3) carcinoma cell lines together with melanoma (A375) cells were obtained from American Type Culture Collection (ATCC, Rockville, MD). The human ovarian cancer cell line 2008 and its cisplatin resistant variant, C13*, were kindly provided by Prof. G. Marverti (Department of Biomedical Science of Modena University, Italy). Human cervical carcinoma (A431) cells were kindly provided by Prof. F. Zunino (Division of Experimental Oncology B, Istituto Nazionale dei Tumori, Milan, Italy). Cell lines were maintained in the logarithmic phase at 37 °C in a 5% carbon dioxide atmosphere using the following culture media containing 10% fetal calf serum (Euroclone, Milan, Italy), antibiotics (50 units/mL penicillin and 50 μg/mL streptomycin) and 2 mM L-glutamine: (i) RPMI-1640 medium (Euroclone) for 2008, C13*, MCF-7, HCT-15, A431 and BxPC3 cells, (ii) F-12 HAM’S (Sigma Chemical Co.) for A549 cells, iii) DMEM (Sigma Chemical Co.) for A375 cells.
(§4) The growth inhibitory effect toward tumor cells was evaluated by means of the MTT assay. Briefly, (3–8) × 10^3 cells/well, dependent upon the growth characteristics of the cell line, were seeded in 96-well microplates in growth medium (100 μL). After 24 h, the medium was removed and replaced with fresh medium containing the compound to be studied at the appropriate concentration. Triplicate cultures were established for each treatment. After 24, 48, or 72 h, each well was treated with 10 μL of a 5 mg/mL MTT saline solution and, after 5 h of incubation, 100 μL of a sodium dodecylsulfate (SDS) solution in 0.01 M HCl was added. After an overnight incubation, cell growth inhibition was detected by measuring the absorbance of each well at 570 nm using a Bio-Rad 680 microplate reader. The mean absorbance for each drug dose was expressed as a percentage of the control, untreated well absorbance and plotted vs drug concentration. The IC50 values, the drug concentrations that decrease the mean absorbance at 570 nm to 50% of that of untreated control wells, were calculated from the dose–response curves with the four-parameter logistic model (4PL). The final value is the mean ± S.D. of at least three independent experiments performed in triplicate.

For data set [2], the system named is A549 lung carcinoma cells. The data set can be described thus: cells. Conditions: A549, 72 h. The procedure:
as §1, §2, §3, §4

Data set [3] has as its system A375 melanoma cells. Nature of the data set: MTT cytotoxicity test, A375. The class given is cell-based, human. The following applies: ± S.D. The procedure:
as §1, §2, §3, §4

Data set [4] concerns BxPC3 pancreatic carcinoma cells. Nature of the data set: MTT cytotoxicity test, BxPC3. In kind it is cell-based, human. The following applies: BxPC3, 72 h, MTT, ± S.D. Here is the method: as §1, §2, §3, §4
For data set [5], the system named is panel of human tumor cell lines (BxPC3, HCT-15, MCF-7, A431, A549, A375). The data set can be described thus: MTT cytotoxicity, mean over panel of human tumor cell lines. The class given is cell-based. The procedure: as §1, §4
Data set [6] relates to A375 melanoma cells. The data set can be described thus: Cellular accumulation of Pt (GF-AAS). The class given is cell-based, human. The following applies: A375, 1.5 and 3 μM, 6 and 24 h.
Data set [7] concerns C13* cisplatin-resistant ovarian cancer cells. Nature of the data set: MTT cytotoxicity test, cisplatin-resistant C13*. The class given is cell-based, human. The procedure: The cytotoxic properties of the complexes were also evaluated in a pair of tumor cell lines suitably selected for their sensitivity and resistance to cisplatin (adenocarcinoma cells 2008/C13^*). Cross-resistance profiles were evaluated by means of the resistance factor (RF), defined as the ratio between IC50 values calculated for the resistant cells and those obtained with the sensitive ones (Table 2). The phenomenon of cisplatin resistance is multifactorial in nature.
as §2, §3, §4

Data set [8] can be described thus: Stability in physiological saline by mass spectrometry. In kind it is physicochemical. The following applies: 0.9% NaCl. Here is the method:
Ten indole carboxylic acid Pt(IV) complexes with IAA (indole-3-acetic acid, 1A–5A) and IPA (indole-3-propionic acid, 1P–5P) were synthesized and the structures are depicted in Fig. 3. The monocarboxylato complexes 1A and 1P were prepared by reacting oxoplatin, c,c,t-[Pt(NH3)2Cl2(OH)2], with 0.8 eq. of the activated NHS-ester of the corresponding indole carboxylic acid. The dicarboxylato complexes with two indole acids in axial position (2A and 2P) were obtained using an excess of the NHS-ester activated acid (20 eq.), since the second hydroxo group of oxoplatin is much less reactive than the first one. The unsymmetrically substituted complexes (3A–5A and 3P–5P) were prepared by reaction of the monocarboxylate complexes 1A and 1P with the corresponding anhydrides. We chose three different anhydrides (benzoic, acetic and succinic anhydride) to vary the lipophilicity of the resulting Pt(IV) complexes. All the synthesized Pt(IV) complexes were characterized using elemental analysis, ESI-MS, FT-IR, ^1H and ^195Pt NMR spectroscopy. The purity of the complexes has been assessed through elemental analysis and–where solubility was not an issue–by high performance liquid chromatography (HPLC). The dicarboxylato complexes are poorly soluble in organic solvents. The proton NMR spectra of the complexes in DMSO-d6 show the typical signal of the NH3 protons which is a multiplet at around 6 ppm for the monocarboxylato complexes 1P and 1A (typical ^1JNH and ^2JPtH values around 50 Hz) while it is a broad signal around 6.5 ppm for the bis-substituted complexes (2–5A and 2–5P, Supplementary Information)[44]. The mass spectra of the complexes show a peak in the negative mode with the typical platinum isotope pattern corresponding to M − H^− or M + Cl^−. Stability studies on representative examples of the complexes (1A, 1P, 3A and 3P) via mass spectrometry confirm that the complexes are stable in physiological saline (0.9% NaCl) for at least 48 h (Supplementary Information).
Complexes 1A, 1P, 3A and 3P where dissolved in a minimum amount of DMF and diluted 1:20 with physiological saline (0.9% NaCl). Mass spectra were recorded at t = 0 and after 48 hours.

Data set [9] has as its system MCF-7 breast carcinoma cells. The data set can be described thus: MTT cytotoxicity test, MCF-7. In kind it is cell-based, human. The following applies: ± S.D. The procedure:
as §1, §2, §3, §4

The test system of data set [10] is HCT-15 colon carcinoma cells. Nature of the data set: MTT cytotoxicity test, HCT-15. In kind it is cell-based, human. The following applies: HCT-15, 72 h, MTT, ± S.D. The procedure: as §1, §2, §3, §4
For data set [11], the system named is 2008 ovarian cancer cells. The data set can be described thus: MTT cytotoxicity test, cisplatin-sensitive 2008. In kind it is cell-based, human. The following applies: 2008 cisplatin-sensitive, 72 h, ± S.D. Here is the method:
The cytotoxic properties of the complexes were also evaluated in a pair of tumor cell lines suitably selected for their sensitivity and resistance to cisplatin (adenocarcinoma cells 2008/C13^*). Cross-resistance profiles were evaluated by means of the resistance factor (RF), defined as the ratio between IC50 values calculated for the resistant cells and those obtained with the sensitive ones (Table 2). The phenomenon of cisplatin resistance is multifactorial in nature. Nevertheless, the main molecular mechanisms involved in drug resistance in C13* cancer cells have largely been identified. Indeed, in this cell line resistance is correlated to high cellular glutathione and thioredoxin reductase levels, reduced cellular drug uptake and enhanced repair of DNA damage. […] The RF values calculated for all derivatives were six- to nine-fold lower than that of cisplatin, clearly indicating the absence of cross-resistance.
as §2
Triplicate cultures were established for each treatment.

A short description of data set [12]: Log P octanol/water, shake flask method with ICP-MS. In kind it is physicochemical. The following applies: n-octanol / 0.9% NaCl water, Pt by ICP-MS. Here is the method: Partition coefficients (logP values) for octanol/water partition were determined in order to examine whether a correlation exists between lipophilicity and accumulation into cells. The log P values obtained (Table 3) give the trend in lipophilicity as mono indole acid complex < succinate complex < acetate complex < bis indole acid complex < benzoate complex for both the IAA and the IPA series.
The logP values of the Pt(IV) compounds were determined using the shake flask method. The respective Pt(IV) complex was dissolved in 0.9% NaCl (w/v) ultrapure water (presaturated with n-octanol). The solutions were sonicated and filtered to remove undissolved Pt(IV) compounds. The initial Pt concentrations were determined by ICP-MS. Subsequently, the Pt(IV) solutions were added to an equal volume of n-octanol (presaturated with 0.9% NaCl (w/v) ultrapure water). The heterogeneous mixtures were shaken vigorously for 30 min before centrifuging at 4000 rpm for 30 min to achieve phase separation. The final Pt concentration in the aqueous phase was determined again by ICP-MS. The logarithm of the ratio of Pt concentrations in the organic and aqueous phases was calculated to determine the logP values. All experiments were done in duplicate.

In a further data set the test system is A375 cells. Nature of the data set: ROS production (CM-H2DCFDA probe). Conditions: A375, 12.5 μM, compared with antimycin positive control. The class given is cell-based, human. Here is the method: ROS are products of normal cell metabolism but their levels can be increased upon exposure to toxic agents or interference with the cellular redox network. […] Consequently, cellular ROS levels upon treatment with equal doses (12.5 μM) of the different platinum complexes were monitored in A375 cancer cells by using the peroxide-sensitive fluorescent probe CM-H2DCFDA (5-(and-6)-chloromethyl-2′,7′-dichlorodihydrofluorescein diacetate, acetyl ester). Antimycin, a classical inhibitor of the mitochondrial respiratory chain at the level of complex III, was used as a positive control.
Figure 8 ROS production in A375 cells. Cells were preincubated in PBS/10 mM glucose medium for 20 min at 37 °C in the presence of 10 μM CM-DCFDA and then treated with equimolar doses (12.5 μM) of indole propionic acid Pt(IV) derivatives (panel A) or indole acetic acid Pt(IV) derivatives (panel B). The fluorescence of DCF was measured.
The production of ROS was measured in A375 cells (10^4 per well) grown for 24 h in 96-well plates in DMEM medium without phenol red (Sigma Chemical Co.). Cells were then washed with PBS and loaded with 10 μM 5-(and-6)-chloromethyl-2′,7′-dichlorodihydrofluorescein diacetate, acetyl ester (CM–H2DCFDA) (Molecular Probes-Invitrogen) for 25 min in the dark. Afterwards, cells were washed with PBS and incubated with increasing concentrations of the tested complexes. The fluorescence increase was estimated with a plate reader (Fluoroskan Ascent FL, Labsystem, Finland) at 485 (excitation) and 527 nm (emission). Antimycin (3 μM, Sigma Chemical Co.), a potent inhibitor of Complex III in the electron transport chain, was used as positive control.

Where only a bound is given, the exact number is not on record here.

Turning to `[NH2][Pt]([NH2])([Cl])([Cl])([O]C(=O)CCc1c[nH]c2ccccc12)[O]C(=O)c1ccccc1` [Complex 3P], the IC50 was 2000 ± 320 nM in [1] (A431, 72 h); 960 ± 60 nM in data set [2] (MTT, ± S.D.); 1510 ± 1250 nM in the data set on A375 melanoma cells [3] (A375, 72 h); 2920 ± 1130 nM in data set [4]; 2600 nM in data set [5] (mean over the six cell lines of Table 1, 72 h); 1470 ± 680 nM in data set [7] (C13* cisplatin-resistant, 72 h, MTT, ± S.D.). The IC50 in data set [9] (MCF-7, 72 h) amounted to 2280 ± 460 nM; in data set [10], 5940 ± 630 nM; in data set [11], 4790 ± 690 nM. Further, the “cellular platinum accumulation (in words)” value in the data set on A375 melanoma cells [6] is “internalized most efficiently”. Further, in data set [7] (IC50 resistant (C13*) / parent line (2008)), the “RF (resistance factor)” value is 0.3. Moreover, in data set [8], the “stable in physiological saline” value is on record as “at least 48 h”. The “Log P (octanol/water)” value in data set [12] is on record as −0.028 ± 0.07.
As for `O=C(O)Cc1c[nH]c2ccccc12` [IAA, indole-3-acetic acid, reference compound], the half-inhibitory concentration (IC50) in data set [1] (Homo sapiens, A-431, A431, 72 h) is greater than 50000 nM; in data set [2] (Homo sapiens) it was greater than 50000 nM; in the data set with A375 melanoma cells [3] (Homo sapiens, A-375, A375, 72 h), greater than 50000 nM; in data set [4] (Homo sapiens, BXPC-3), greater than 50000 nM; in data set [9] (Homo sapiens, MCF7, MCF-7, 72 h), greater than 50000 nM; in [10] (Homo sapiens), greater than 50000 nM. Besides, in the data set on A375 cells, the “ROS production (in words)” value was “no effect on cellular basal ROS levels”. Also, in [5] (free ligands), the “cytotoxic effect (in words)” value is recorded as “did not elicit any significant cytotoxic effect”.
